Results taken from patent US10512700B2, “Radiohalide-labeled targeted diagnostics and therapeutics” (Memorial Sloan Kettering Cancer Center, priority 2014, dated 2019).
“And” between values parts separate entries of the source, which are not always exact repeats. Equal values may be shown once.

What was measured:
[1] = Blood half-life; type: in vivo, mouse; details: healthy athymic nude mice, tail vein
Experimental: The blood half-life was determined by measuring the activity in serial blood samplings. […] Measurements in counts per minute were calculated as the mean % ID/g. The blood half-life was calculated using Prism 6.0c (GraphPad Software, La Jolla, Calif.).
The blood half-life was calculated by measuring the activity of blood samples collected at different time points p.i. […] The collected blood was weighed and counted in a WIZARD^2 automatic γ-counter (PerkinElmer, Boston, Mass.). The blood half-life was calculated using Prism 6.0c (GraphPad Software, La Jolla, Calif.) using a two-phase decay least squares fitting method and expressed as % ID/g.

[2] = Stability in whole blood (in vitro); type: in vitro ADME, mouse
Experimental: […] […] The sample was centrifuged at 3000 RCF for 3 min at 4° C., and the supernatant collected. This procedure was repeated three times, and the combined supernatants analyzed by HPLC equipped with radioactive detector (Shimadzu, Kyoto, Japan), collecting samples every 30 sec. Radioactivity of each fraction was measured on a Wizard 2470 Automatic Gamma Counter (Perkin Elmer, Waltham, Mass.) and the blood stability was analyzed using Prism 6.0c (GraphPad Software, La Jolla, Calif.).

[3] = tested on: U251 MG tumor bearing mice; experiment: Biodistribution; type: in vivo, mouse; details: C-2d, i.v., 2 h post injection
Experimental: Biodistribution studies were conducted on female nude mice (8-10 weeks old and 20-25 g in weight, n=21) bearing U251 MG subcutaneous xenografts. The radiolabeled preparation (20-30 μCi of compound C-2d (^131I) in 200 μL of a solution 90% PBS 10% PEG300) was administrated via the lateral tail vein. The compound was allowed to circulate for 2 h post injection at which time mice were sacrificed and organs were harvested (n=3). The radioactive content in tissue of interest (blood, tumor, muscle, bone, liver, spleen, kidney, heart, lung, pancreas, brain, skin, small intestine, large intestine, stomach, tail, thyroid and feces) was measured on a Wizard 2470 Automatic Gamma Counter, and the tissue-associated activity was calculated as the mean % ID/g using the following formula: [(activity in the target organ/grams of tissue)/injected dose]×100%.
Biodistribution studies were performed in subcutaneous U251 MG xenograft bearing athymic nude mice (n=12). Mice were divided in two groups (blocked and unblocked) and administered with C-2f (approximately 50 μCi, 45 mCi/μmol in […], 10% EtOH in 0.9% sterile saline) via tail vein injection. […] Mice were sacrificed by CO2 asphyxiation at 120 min post injection and major organs were collected, weighed, and counted in a WIZARD^2 automatic γ-counter (PerkinElmer, Boston, Mass.). The radiopharmaceutical uptake was expressed as a percentage of injected dose per gram (% ID/g) using the following formula: [(activity in the target organ/grams of tissue)/injected dose]×100%.

[4] = tested on: orthotopic U251 MG tumor-bearing mice; experiment: Autoradiography using C-2d; type: in vivo, mouse
Experimental: U251 MG glioblastoma cells (5×10^4 in 2 μL of PBS) were orthotopically implanted in athymic nude mice, using a stereotaxic device, and the tumors allowed to grow for approximately 4 weeks. […] Additionally, healthy mice were also injected with 500 μCi C-2d. After 2 h of circulation time after the C-2d injection, the mice were sacrificed. Liver, tumor, muscle, and brain tissues were excised and embedded in O.C.T. compound (Sakura Finetek, Torrance, Calif.) and frozen at −20° C., and a series of 8 μm frozen sections was cut and mounted on microscope slides. To determine radiotracer distribution, digital autoradiography was performed by placing tissue sections in a film cassette against a phosphor image plate (BASMS-2325; Fujifilm) for 48 h at −20° C. Phosphor imaging plates were read at a pixel resolution of 25 μm with a Typhoon 7000IP plate reader (GE Healthcare, Piscataway, N.J.) (images not shown). After autoradiographic exposure, the same frozen sections were then used for […] staining. Areas of brain slides containing tumor tissue were identified using the H&E staining and then overlaid with the autoradiographic data (images not shown). Intensity of tumor areas and non-tumor areas were then quantified using ImageJ 1.47 u (see FIGS. 5A and 5B).

[5] = autoradiography, mice that received no olaparib

In the case of `O=C(c1ccc([131I])cc1)N1CCN(C(=O)c2cc(Cc3n[nH]c(=O)c4ccccc34)ccc2F)CC1` [C-2d (^131I)], the alpha blood half-life [1] is reported as 14.3 min, the “alpha blood half-life, share of phase” value [1] is reported as 96.25% and the beta blood half-life [1] is reported as 94.6 min. For the same molecule, the “beta blood half-life, share of phase” value [1] was 3.75%, the weighted blood half-life ([1]; 50 μCi) was 17.1 min and the “in vitro blood stability” value ([2]; mouse blood, 37° C., over 60 min) was “confirmed the stability of the compound”. The “in vitro blood stability” value ([2]; over the course of 120 minutes) was “confirmed the stability of the compound”, the “% ID/g, Blood” value [3] was 0.27 % ID/g and the “% ID/g, Bone” value [3] was 0.07 % ID/g. The “% ID/g, Brain” value [3] was 0.011±0.003 % ID/g and 0.01 % ID/g, the “% ID/g, Feces” value [3] was 4.34 % ID/g and the “% ID/g, Heart” value [3] was 0.16 % ID/g. For the same molecule, the “% ID/g, Kidneys” value [3] was 0.61 % ID/g, the “% ID/g, Large intestine” value [3] was 1.26 % ID/g and the “% ID/g, Liver” value [3] was 2.34 % ID/g. For the same molecule, the “% ID/g, Lung” value [3] was 0.28 % ID/g, the “% ID/g, Muscle” value [3] was 0.03±0.01 % ID/g and 0.03 % ID/g and the “% ID/g, Pancreas” value [3] was 0.15 % ID/g. The “% ID/g, Skin” value [3] was 0.25 % ID/g, the “% ID/g, Small intestine” value [3] was 11.70 % ID/g and the “% ID/g, Spleen” value [3] was 0.40 % ID/g. The “% ID/g, Stomach” value [3] was 0.88 % ID/g, the “% ID/g, Tail” value [3] was 0.60 % ID/g and the “% ID/g, Thyroid” value [3] was 0.24 % ID/g. The “% ID/g, Tumor” value [3] was 0.43±0.06 % ID/g and 0.43 % ID/g, the “signal intensity in tumor tissue vs healthy brain tissue” value [4, 5] was 15.7 fold and the “signal intensity in tumor tissue vs muscle tissue” value [4, 5] was 6.2 fold. The “reduction in intensity of the autoradiography signal in tumor tissue” value ([4]; mice treated with olaparib) was 65%, the “autoradiography signal, muscle” value ([4]; with olaparib treatment) was 248±72 AU and the “autoradiography signal, tumor tissue” value ([4]; with olaparib treatment) was 536±87 AU. For the same molecule, the “autoradiography signal, muscle” value ([4]; without olaparib treatment) was 192±20 AU and the “autoradiography signal, tumor tissue” value ([4]; without olaparib treatment) was 1222±203 AU.
